In patent US8354422B2, “Pyrimidine inhibitors of kinase activity” (Abbott Laboratories Inc., priority 2009, dated 2013):

target: T1, C-terminal GST-tagged, recombinant, human IGF-1R, amino acids 954-1367 (Homo sapiens, UniProt P08069); assay: IGF-1R kinase activity, homogenous time-resolved fluorescence (HTRF) in vitro kinase assay; format: biochemical; details: IGF-1R kinase HTRF assay, ATP 50 μM, biotinylated peptide substrate 0.5 μM, 60 minutes at room temperature
T1 construct: human IGF-1R, amino acids 954-1367 expressed by baculovirus in Sf21 cells; GST (C); purchased Cell Signaling Technology; host or cells: baculovirus in Sf21 cells
In short: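 HTRF assay with baculovirus/Sf21-expressed enzyme, 50 μM ATP, 0.5 μM biotinylated peptide substrate, 2% DMSO, in HEPES pH 7.5 buffer with MgCl2, 2 mM MnCl2, BSA, DTT; 60 min at room temperature. EDTA-quenched, detected with streptavidin-APC and Eu-cryptate anti-phosphotyrosine mAb; 615/665 nm ratio used for IC50.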

T1 sequence (P08069 954-1367): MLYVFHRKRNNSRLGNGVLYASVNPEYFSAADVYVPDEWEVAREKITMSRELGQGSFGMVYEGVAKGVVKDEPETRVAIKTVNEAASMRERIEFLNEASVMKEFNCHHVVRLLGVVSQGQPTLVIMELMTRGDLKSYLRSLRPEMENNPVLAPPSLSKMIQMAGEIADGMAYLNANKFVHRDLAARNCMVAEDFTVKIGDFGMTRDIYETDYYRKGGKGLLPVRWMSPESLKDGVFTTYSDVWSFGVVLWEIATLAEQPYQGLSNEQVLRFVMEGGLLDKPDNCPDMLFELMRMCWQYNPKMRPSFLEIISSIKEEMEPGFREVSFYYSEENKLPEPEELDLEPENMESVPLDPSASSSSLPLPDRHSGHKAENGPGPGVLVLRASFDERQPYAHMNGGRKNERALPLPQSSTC

`c1ccc(COc2ccc(-c3nc4sccn4c3-c3ccnc(Nc4ccccc4)n3)cc2)cc1` [Example 78, 4-{6-[4-(benzyloxy)phenyl]imidazo[2,1-b][1,3]thiazol-5-yl}-N-phenylpyrimidin-2-amine] and `COc1ccccc1Nc1nccc(-c2c(-c3ccc(OCc4ccccc4)cc3)nc3sccn23)n1` [Example 79, 4-{6-[4-(benzyloxy)phenyl]imidazo[2,1-b][1,3]thiazol-5-yl}-N-(2-methoxyphenyl)pyrimidin-2-amine] cannot be ordered by IC50: > 1000 nM for the first, > 1000 nM for the second.

Compared with `COc1cc(N2CCC(N(C)C)CC2)ccc1Nc1nccc(-c2c(-c3ccc(OCc4ccccc4)cc3)nc3sccn23)n1` [Example 80, 4-{6-[4-(benzyloxy)phenyl]imidazo[2,1-b][1,3]thiazol-5-yl}-N-{4-[4-(dimethylamino)piperidin-1-yl]-2-methoxyphenyl}pyrimidin-2-amine], `COc1cc(N2CCC(N(C)C)CC2)ccc1Nc1nccc(-c2c(-c3ccc(OCc4ccccc4)c(OC)c3)nc3sccn23)n1` [Example 84, 4-{6-[4-(benzyloxy)-3-methoxyphenyl]imidazo[2,1-b][1,3]thiazol-5-yl}-N-{4-[4-(dimethylamino)piperidin-1-yl]-2-methoxyphenyl}pyrimidin-2-amine] is lower in IC50: 25 to 100 nM for the first, < 25 nM for the second.

`COc1cc(N(C)C)ccc1Nc1nccc(-c2c(-c3ccc(OCc4ccccc4)c(OC)c3)nc3sccn23)n1` [Example 81, N^1-(4-{6-[4-(benzyloxy)-3-methoxyphenyl]imidazo[2,1-b][1,3]thiazol-5-yl}pyrimidin-2-yl)-2-methoxy-N^4,N^4-dimethylbenzene-1,4-diamine] and `COc1cc(-c2nc3sccn3c2-c2ccnc(Nc3ccc(CN(C)C)cc3)n2)ccc1OCc1ccccc1` [Example 83] fall in the same range of IC50: 25 to 100 nM for the first, 25 to 100 nM for the second.

First: COc1cc(-c2nc3sccn3c2-c2ccnc(Nc3ccccc3CN3CCCC3)n2)ccc1OCc1ccccc1 [Example 82, 4-{6-[4-(benzyloxy)-3-methoxyphenyl]imidazo[2,1-b][1,3]thiazol-5-yl}-N-[2-(pyrrolidin-1-ylmethyl)phenyl]pyrimidin-2-amine]
Second: COc1cc(-c2nc3sccn3c2-c2ccnc(Nc3cccc(CCN(C)C)c3)n2)ccc1OCc1ccccc1 [Example 85, 4-{6-[4-(benzyloxy)-3-methoxyphenyl]imidazo[2,1-b][1,3]thiazol-5-yl}-N-{3-[2-(dimethylamino)ethyl]phenyl}pyrimidin-2-amine]
The IC50 of the first is higher: > 1000 nM for the first, 25 to 100 nM for the second. The second is the more potent here.
